Literature values in article PMC4738315, “How to unveil self-quenched fluorophores and subsequently map the subcellular distribution of exogenous peptides” (Scientific Reports, 2016).
pKd: −log10 of the molar value.

Biological target: anionic phospholipids (DOPC/DOPG or POPC/POPG)
Conditions: POPC/POPG 75:25; ref 9 (Gonçalves et al., 2005); read-out: Affinity for PLs, Kd
Text: page 25: Supplementary Table 1: Sequences of the three studied CPPs and their respective affinities for glycosaminoglycans or anionic phospholipids. Peptide Sequence Affinity for HS, Kd, µM[a] Affinity for PLs, Kd, µM Penetratin (Pen)3 RQIKIWFQNRRMKWKK nd[b] 63 (DOPC/DOPG 90:10)4 Tat peptide (Tat)5 YGRKKRRQRRR 1.676 83 (POPC/POPG 75:25)7 Arg98 RRRRRRRRR 0.329 12 (POPC/POPG 75:25)9 [a] HS: heparan sulfate. [b] nd: not determined. 25

RRRRRRRRR [Arg9, nona-arginine, nona-arginine cell-penetrating peptide]
pKd: 4.92
